Several values for one entry are separate records, joined by “and”; a condition that tells them apart may be missing. Identical values can stand only once.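 96-well plates; 48 h exposure; 5 concentrations. Endpoints by linear interpolation between flanking doses. Not reached: highest tested concentration assigned. Here, GI50 denotes the concentration required for 50% inhibition of growth. TGI denotes the concentration required for complete inhibition of growth.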
Tests used:
Experiment in all cases: inhibition of tumour cell growth, NCI panel, 48 h
LOX IMVI melanoma = test system: LOX IMVI melanoma
SK-MEL-5 melanoma = test system: SK-MEL-5 melanoma
HL-60(TB) leukemia = test system: HL-60(TB) leukemia
SN12C renal = test system: SN12C renal
K-562 leukemia = test system: K-562 leukemia
MOLT-4 leukemia = test system: MOLT-4 leukemia
SK-OV-3 ovarian = test system: SK-OV-3 ovarian
MCF7 breast = test system: MCF7 breast
HT29 colon = test system: HT29 colon
RPMI-8226 leukemia = test system: RPMI-8226 leukemia

| SMILES | GI50 (LOX IMVI melanoma) | TGI (LOX IMVI melanoma) | GI50 (SK-MEL-5 melanoma) | TGI (SK-MEL-5 melanoma) | GI50 (HL-60(TB) leukemia) | TGI (HL-60(TB) leukemia) | GI50 (SN12C renal) | TGI (SN12C renal) [µM] | GI50 (K-562 leukemia) | TGI (K-562 leukemia) | GI50 (MOLT-4 leukemia) | TGI (MOLT-4 leukemia) | GI50 (SK-OV-3 ovarian) | TGI (SK-OV-3 ovarian) | GI50 (MCF7 breast) | TGI (MCF7 breast) | GI50 (HT29 colon) | TGI (HT29 colon) | GI50 (RPMI-8226 leukemia) | TGI (RPMI-8226 leukemia) |
| --- | --- | --- | --- | --- | --- | --- | --- | --- | --- | --- | --- | --- | --- | --- | --- | --- | --- | --- | --- | --- |
| COc1cc(/C=C/[N+](=O)[O-])cc(OC)c1OC | 1.39 µM | 2.91 µM | 1.55 µM | 3 µM | 4.95 µM | 55.9 µM | 2.51 µM | 9.26 | 2.81 µM | > 100 µM | 4.56 µM | 34.1 µM | 4.79 µM | 16.1 µM | 3.08 µM | 14.6 µM | 2.2 µM | 4.81 µM | 3.14 µM | 8.59 µM |
| C[C@H]1c2ccccc2CN1CCCOc1cc2c(cc1OCC1CC1)C1(CCCC1)C(N)=N2 | 0.845 µM | 1.57 µM | 0.912 µM | 1.69 µM | 1.21 µM | 3.16 µM | 2.59 µM | 9.18 | 0.871 µM | 2.46 µM | 1.4 µM | 4.93 µM | 4.84 µM | 10.7 µM | 1.18 µM | 3.46 µM | 1.05 µM | 2.67 µM | 1.01 µM | 3.13 µM |
| OCc1ccc(N2CCCC2)cc1Cl | > 86.9 µM | > 100 µM | 18.7 µM | > 75.5 µM | 13.7 µM | > 75.6 µM | 47.6 µM | > 100 | 8.18 µM | > 100 µM | 36.9 µM | > 100 µM | 27.3 µM | > 90.6 µM | 1.95 µM | > 61.9 µM | 7.9 µM | 76.4 µM | 6.22 µM | > 84.5 µM |
| O=C(NN1C(=O)CSC1c1ccc(F)cc1)C(O)c1ccccc1 (stereo not given) | > 100 µM | > 100 µM | > 100 µM | > 100 µM | 91.5 µM | > 100 µM | > 100 µM | > 100 | 43.3 µM | > 100 µM | > 100 µM | > 100 µM | > 100 µM | > 100 µM | > 100 µM | > 100 µM | > 100 µM | > 100 µM | 44.4 µM | > 100 µM |
| C=CCn1c(=O)c2cnc(Nc3ccc(N4CCN(C)CC4)cc3)nc2n1-c1cccc(C(C)(C)O)n1 | 0.433 µM and 0.537 µM | 6.06 µM and > 7.93 µM | 0.231 µM and 0.442 µM | 1.04 µM and 7.76 µM | 0.272 µM and 0.325 µM | 1.35 µM and > 3.11 µM | 0.855 µM and 0.479 µM | > 100 | 0.315 µM and 0.282 µM | 17.8 µM and > 7.64 µM | 0.348 µM and 0.333 µM | 18.1 µM and 4.26 µM | 0.251 µM and 0.237 µM | 8.08 µM and > 3.11 µM | 0.323 µM | 21.4 µM and > 10 µM | 0.207 µM and 0.286 µM | 0.643 µM and > 3.82 µM | 1.65 µM and 1.52 µM | 5.61 µM and 6.22 µM |
| CC1=C(Cl)C[C@@H](/C(C)=C\Cl)O[C@@]1(O)C(Br)Br | – | > 100 µM | – | 54.9 µM | – | 38.1 µM | – | 37.2 | – | > 100 µM | – | > 100 µM | – | > 100 µM | – | 49.3 µM | – | > 100 µM | – | 65.8 µM |
| CC(=O)O.CC(=O)O.CC(=O)O.CC(=O)O.[Rh].[Rh] | 17.2 µM | 61.9 µM | 18.6 µM | 37 µM | 23.7 µM | 50.9 µM | 40.3 µM | > 100 | 18.5 µM | 56.2 µM | 22.6 µM | 47 µM | > 100 µM | > 100 µM | 27.2 µM | > 100 µM | 21.2 µM | 53.6 µM | 19.4 µM | 50.8 µM |
| C=CCCCOC1[C@H](OCc2ccccc2)C(OCc2ccccc2)C(OC)O[C@@H]1CNC(=O)c1cccc(I)c1 (stereo not given in full) | 2.81 µM | > 100 µM | 2.2 µM | 16.2 µM | 2.83 µM | 21.3 µM | 8.53 µM | > 100 | 2.7 µM | > 100 µM | 1.9 µM | > 100 µM | 5.45 µM | > 100 µM | 3.5 µM | > 100 µM | 4.54 µM | > 100 µM | 2.57 µM | 9.19 µM |
| O=C1CSC(c2ccccc2O)N1c1nnc(Cn2ccnc2)o1 (stereo not given) | 6.58 µM | 24.8 µM | 7.4 µM | 20.2 µM | 1.46 µM | > 100 µM | 12.8 µM | > 100 | 4.36 µM | > 100 µM | 5.23 µM | > 100 µM | 27.6 µM | > 100 µM | 5.43 µM | 23.5 µM | 5 µM | > 100 µM | 3.52 µM | 24.4 µM |
| Cc1ccc(Sc2oc(-c3ccc(C)cc3)nc2[P+](c2ccccc2)(c2ccccc2)c2ccccc2)cc1 | 0.166 µM | 0.323 µM | 0.287 µM | 0.785 µM | 0.23 µM | 0.566 µM | 0.311 µM | 1.21 | 0.302 µM | 1.52 µM | 0.319 µM | 1.11 µM | 0.27 µM | 1.1 µM | 0.286 µM | 1.09 µM | 0.294 µM | 1.15 µM | 0.308 µM | 1.35 µM |
| COc1ccc(Oc2ccccc2NC(=O)CNC(=O)c2cccc3ccccc23)cc1 | 1.34 µM | > 25 µM | 0.377 µM | 8.41 µM | 0.613 µM | 1.71 µM | 2.3 µM | > 25 | 0.143 µM | > 25 µM | 0.96 µM | > 25 µM | 1.02 µM | > 25 µM | 0.259 µM | > 25 µM | 0.576 µM | 19.4 µM | 1.13 µM | 8.45 µM |
| Nc1n[nH]c(N)c1N=Nc1ccc(O)cc1 | 4.09 µM | 53.6 µM | 13.9 µM | 30.9 µM | 6.44 µM | 35.4 µM | 23.3 µM | > 100 | 9.17 µM | > 100 µM | 13.5 µM | 91 µM | 49.2 µM | > 100 µM | 23.5 µM | 90.8 µM | 29.7 µM | > 100 µM | 14.4 µM | 54.3 µM |
| Cc1cccc2c(Nc3ccc(NS(C)(=O)=O)cc3)c3ccc([N+](=O)[O-])cc3nc12 | 0.409 µM | 2.13 µM | 0.487 µM | 1.99 µM | 2.07 µM | 7.09 µM | 0.486 µM | 7.58 | 2.04 µM | 14 µM | 0.3 µM | 6.09 µM | 2.4 µM | 17.1 µM | 0.0382 µM | 3.58 µM | 1.59 µM | 3.47 µM | 1.09 µM | 7.56 µM |
| COc1cc2c(c(OC)c1OC)-c1c(cc3c(c1OC)OCO3)CC(C)C(C)(O)C2OC(=O)c1ccccc1 (stereo not given) | – | > 100 µM | – | > 100 µM | – | 48.7 µM | – | > 100 | – | > 100 µM | – | 29.3 µM | – | > 100 µM | – | > 100 µM | – | 75.6 µM | – | 79.3 µM |
| C[C@@H]1COCCN1c1cc(-c2ccnn2C)c2ccnc(-c3ccn[nH]3)c2n1 | 0.0572 µM and 0.118 µM | 0.421 µM and 1.51 µM | 0.222 µM and 0.286 µM | 0.766 µM and 2.52 µM | 0.106 µM and 0.194 µM | 0.66 µM and 3.16 µM | 0.184 µM and 0.314 µM | > 100 | 0.0844 µM and 0.384 µM | > 100 µM | 0.0319 µM and 0.0751 µM | 9.08 µM | 0.0928 µM and 0.215 µM | 0.732 µM and 2.06 µM | 0.0158 µM and 0.0425 µM | 23.8 µM and > 100 µM | 0.237 µM and 0.389 µM | 36.4 µM and > 100 µM | 0.177 µM and 0.202 µM | 3.01 µM and 5.4 µM |
| O=C1/C(=C/c2cccc(Br)c2)COc2ccc(O)c(O)c21 | 0.658 µM | 2.04 µM | 1.63 µM | 3.03 µM | 0.969 µM | 4.05 µM | 1.2 µM | 3.04 | 0.387 µM | 20.7 µM | 0.927 µM | 10.8 µM | 3.12 µM | 10.6 µM | 0.649 µM | 2.56 µM | 1.83 µM | 3.62 µM | 0.248 µM | 0.649 µM |
| CCSc1nc(N)c(C#N)c(-c2ccco2)c1C#N | 17.1 µM | 37.1 µM | 33.3 µM | > 100 µM | 39.8 µM | > 100 µM | > 100 µM | > 100 | 43.7 µM | > 100 µM | 51.9 µM | > 100 µM | 53.3 µM | > 100 µM | 15 µM | > 100 µM | 56.4 µM | > 100 µM | 12.2 µM | 42.4 µM |
| Brc1cccc(-c2cc(-c3ccc4nccnc4c3)[nH]n2)c1 | 1.42 µM | > 250 µM | 0.783 µM | 11.7 µM | 0.519 µM | 1.75 µM | 1.39 µM | > 250 | 0.215 µM | > 250 µM | 1.52 µM | > 145 µM | 0.845 µM | > 250 µM | 0.413 µM | > 250 µM | 0.174 µM | > 165 µM | 0.865 µM | 76.4 µM |
| COc1cc(C2CC(=O)Nc3c2cc(Br)c2ccccc32)cc(Br)c1OC (stereo not given) | 1.65 µM | > 100 µM | 2.82 µM | > 100 µM | 1.06 µM | 3.98 µM | 2.54 µM | > 100 | 0.493 µM | 20.5 µM | 2.78 µM | > 47.6 µM | 1.76 µM | 3.35 µM | 0.642 µM | > 100 µM | 0.514 µM | 4.21 µM | 3.71 µM | > 100 µM |

From PubChem BioAssay (NCI)
